Test results reported in patent publication US4039666A, “Anticonvulsant phenylsilanes” (Dow Corning Corporation, priority 1976, dated 1977).
Read-outs that look alike come from different tables or passages of the source.

Experiments:
[1] = system: mice; test: Electroshock test (Maximal Electroshock Test, M.E.S.), inhibition of tonic extension of hind limbs; type: in vivo, mice (adult male, Carworth CF 1 strain); details: for ED50: Mus musculus
Procedure: The electroshock test procedure was used to determine anticonvulsant activities of diphenylmethylsilanol. Adult male mice (Carworth CF 1 strain) were utilized as test animals. […] Seizure protection was scored as inhibition of tonic extension. Groups of mice (six/group) were dosed orally with varying amounts of diphenylmethylsilanol in a sesame oil suspension. The dosages ranged from 10 to 1000 mg./kg. and the train of electric shocks was applied 2, 4 and 6 hours after dosing. The effective dose to prevent convulsions in half the animals (ED50) was determined at 2, 4 and 6 hours to be 52, 63, 100 mg/kg, respectively, and the 95 percent CI (confidence interval) was 23 to 114 mg./kg.; 27 to 141 mg./kg.; 47 to 212 mg./kg.
The electric shock test procedure was also used to determine anticonvulsant activities of phenylmethyldimethoxysilane. Adult male mice (Carworth CF 1 strain) were utilized as test animals. […] Seizure protection was scored as in Example 1. Groups of mice ten/group) were dosed orally with varying amounts of phenylmethyldimethoxysilane in a sesame oil solution. The dosages ranged from 25 to 200 mg./kg. and the train of electric shocks was applied 1/2, 1, 11/2, 2 and 3 hours after dosing. The effective dose to prevent convulsions in half the animals (ED50) was determined at 1/2, 1, 11/2, 2 and 3 hours to be 52, 86, 64, 82 and 90 mg./kg., respectively. Utilizing the same electroshock test procedure as set forth in the first paragraph of this example, groups of mice (ten/group) were dosed intraperitoneally with varying amounts of phenylmethyldimethoxysilane in a sesame oil solution. The dosages ranged from 25 to 200 mg./kg. and the train of electric shocks was applied 1/2, 1, 11/2, 2 and 3 hours after dosing. The effective dose to prevent convulsions in half the animals (ED50) was determined at 1/2, 1, 11/2, 2 and 3 hours to be 45, 65, 52, 51 and 70 mg./kg., respectively.
The electric shock test used in Example 1 and 2 was used in determining the anticonvulsant activities of several other silanes.
(§1) ^1 The test silane was administered orally in sesame oil vehicle at
^2 M.E.S. - Maximal Electroshock Test - ED50 is dose calculated
to protect 50% of mice from tonic extensor convulsion. The dosages ranged

[2] = system: mice; test: Potentiation of hexobarbital sleep time (relative sedative activity); type: in vivo, mice (male, Carworth CF1 strain); details: Table I; 316 mg/kg test compound oral, 90 minutes before hexobarbital 100 mg/kg i.p.
Procedure: As a test of relative sedative activity of the various silanes, the ability of each to potentiate the action of hexobarbital was studied. For each silane, two groups of male mice (Carworth CF1 strain) were utilized as test animals. Two groups of mice (six/group) were used, one group was orally dosed with 316 mg./kg. of the test silane in sesame oil carrier 90 minutes before administration of hexobarbital. Hexobarbital was administered by intraperitoneal injection of 100 mg./kg. in saline carrier. The time from loss of the righting reflex to recovery of the righting reflex was recorded as sleep time. Potentiation of hexobarbital of the test silane is the ratio of the mean sleep time by the group of test animals dosed with the silane divided by the mean sleep time of the control group not dosed with silane.
^4 Potentiation of hexobarbital - values are the ratios of sleep time
of animals dosed with 316 mg/kg test compound plus 100 mg/kg hexobarbital
to the sleep times of animals dosed with hexobarbital alone.

[3] = system: mice; test: Protection vs. pentylenetetrazol clonic convulsions; type: in vivo; details: Table I, 316 mg/kg test compound, oral in sesame oil, pentylenetetrazol 80 mg/kg s.c., n.p. = no protection observed; for responders at 316 mg/kg: Mus musculus, read-out: Protection vs. Pentylenetetrazol (numbers of mice protected from clonic convulsion/number tested) (converted)
Procedure: as §1
^3 Pentylenetetrazol 80 mg/kg s.c. produces clonic convulsions in 90%
of control mice. Values in table are the numbers of mice protected from
clonic convulsion/number tested when dosed with 316 mg/kg test compound.

[4] = system: mice; test: Acute oral LD50; type: in vivo, mice (male, 25 gm.); details: Table II footnote 2; oral in sesame oil, up to 5000 mg/kg, 14 days
Procedure: (§2) ^1 Male mice, 25 gm. were used. Each compound was
(§3) given orally in sesame oil at doses ranging from
(§4) highest dose was 5000 mg/kg. The mice were
(§5) observed for 14 days and the number of deaths
(§6) was recorded. LD50 values were calculated by […]

[5] = Acute oral LD50; type: in vivo, mice (male, 25 gm.); details: mouse, in vivo; Table II; male mice, oral in sesame oil, highest dose 5000 mg/kg, observed 14 days, Finney's method; read-out: LD50 (95% Confidence Interval)
Procedure: as §2, §3, §4, §5, §6

[6] = Table I, oral, sesame oil, 2 hours after dosing, n.p. = no protection observed, read-out: MES ED50
[7] = Table I, oral, sesame oil, 4 hours after dosing, read-out: MES ED50
[8] = Table I, oral, sesame oil, 6 hours after dosing, read-out: MES ED50

Row | Structure (SMILES) | ED50 [1, 6] [mg/kg] | ED50 [1, 7] [mg/kg] | ED50 [1, 8] [mg/kg] | Potentiation of Hexobarbital (ratio of sleep time with test compound to hexobarbital alone) [2] | responders at 316 mg/kg [3] [%] | Protection vs. Pentylenetetrazol (numbers of mice protected from clonic convulsion/number tested) [3] | also measured
1 | C[Si](O)(O)c1ccccc1 [drawing 10; R1=CH3; X=OH, phenylmethylsilanediol] | 80 | 110 | 80 | 1.8 | 33.3 | – | –
2 | CCO[Si](CC)(OCC)c1ccccc1 [drawing 10; R1=C2 H5; X=OC2 H5] | 150 | 180 | 64 | 1.8 | 66.7 | – | –
3 | CO[Si](OC)(OC)c1ccccc1 [drawing 12; X=OCH3] | 560 | 300 | 160 | 1.3 | – | n.p. | –
4 | CC[Si](O)(O)c1ccccc1 [drawing 10; R1=C2 H5; X=OH] | 120 | 160 | – | 1.7 | 100 | – | –
5 | CC(=O)O[Si](C)(OC(C)=O)c1ccccc1 [drawing 10; R1=CH3; X=drawing 11] | 200 | 125 | 142 | 1.8 | – | n.p. | –
6 | C=C[Si](OCC)(OCC)c1ccccc1 [drawing 10; R1=CHCH2; X=OC2 H5] | 170 | 200 | 200 | 0.9 | 16.7 | – | –
7 | O[Si](c1ccccc1)(c1ccccc1)c1ccccc1 [drawing 9; X=OH] | 105 | 60 | 110 | 1.9 | – | n.p. | –
8 | CO[Si](C)(OC)c1ccccc1 [phenylmethyldimethoxysilane] | 56 | 50 | 106 | 1.2 | 33.3 | – | ED50 ([1]; 0.5 h, Example 2, oral, sesame oil solution, 1/2 hour after dosing, ten mice/group, read-out: effective dose to prevent convulsions in half the animals (ED50)): 52 mg/kg; ED50 ([1]; 1.5 h, Example 2, oral, sesame oil solution, 11/2 hours after dosing, ten mice/group, read-out: effective dose to prevent convulsions in half the animals (ED50)): 64 mg/kg; ED50 ([1]; ip, 0.5 h, Example 2, intraperitoneal, sesame oil solution, 1/2 hour after dosing, ten mice/group, read-out: effective dose to prevent convulsions in half the animals (ED50)): 45 mg/kg; ED50 ([1]; ip, 1.5 h, Example 2, intraperitoneal, sesame oil solution, 11/2 hours after dosing, ten mice/group, read-out: effective dose to prevent convulsions in half the animals (ED50)): 52 mg/kg; ED50 ([1]; ip, Example 2, intraperitoneal, sesame oil solution, 1 hour after dosing, ten mice/group, read-out: effective dose to prevent convulsions in half the animals (ED50)): 65 mg/kg; ED50 ([1]; ip, Example 2, intraperitoneal, sesame oil solution, 2 hours after dosing, ten mice/group, read-out: effective dose to prevent convulsions in half the animals (ED50)): 51 mg/kg; ED50 ([1]; ip, Example 2, intraperitoneal, sesame oil solution, 3 hours after dosing, ten mice/group, read-out: effective dose to prevent convulsions in half the animals (ED50)): 70 mg/kg; ED50 ([1]; Example 2, oral, sesame oil solution, 1 hour after dosing, ten mice/group, read-out: effective dose to prevent convulsions in half the animals (ED50)): 86 mg/kg; ED50 ([1]; Example 2, oral, sesame oil solution, 2 hours after dosing, ten mice/group, read-out: effective dose to prevent convulsions in half the animals (ED50)): 82 mg/kg; ED50 ([1]; Example 2, oral, sesame oil solution, 3 hours after dosing, ten mice/group, read-out: effective dose to prevent convulsions in half the animals (ED50)): 90 mg/kg
9 | C[Si](O)(c1ccccc1)c1ccccc1 [drawing 15] | – | – | – | – | – | – | deaths observed at any dose level used [4]: No deaths were observed; LD50 at 336 h [5]: > 5000 mg/kg
10 | CC(C)O[Si](C)(OC(C)C)c1ccccc1 [drawing 10; R1=CH3; X=OCH(CH3)2] | 94 | 84 | 41 | 1.8 | 33.3 | – | –
11 | CCO[Si](C)(OCC)c1ccccc1 [drawing 10; R1=CH3; X=OC2 H5] | 180 | 31 | 220 | 1.1 | – | n.p. | –
12 | C[Si](O)(c1ccccc1)c1ccccc1 [diphenylmethylsilanol] | 52 | 63 | 100 | 1.5 | 50 | – | ED50 ([1]; Example 1, oral, sesame oil suspension, 2 hours after dosing, 95 percent CI 23 to 114 mg./kg., six mice/group, read-out: effective dose to prevent convulsions in half the animals (ED50)): 52 mg/kg; ED50 ([1]; Example 1, oral, sesame oil suspension, 4 hours after dosing, 95 percent CI 27 to 141 mg./kg., six mice/group, read-out: effective dose to prevent convulsions in half the animals (ED50)): 63 mg/kg; ED50 ([1]; Example 1, oral, sesame oil suspension, 6 hours after dosing, 95 percent CI 47 to 212 mg./kg., six mice/group, read-out: effective dose to prevent convulsions in half the animals (ED50)): 100 mg/kg
13 | CCO[Si](C)(C)c1ccccc1 [drawing 14] | – | – | – | – | – | – | LD50 at 336 h [5]: 5380 mg/kg
14 | CCO[Si](OCC)(OCC)c1ccccc1 [.phi.Si(OCH2 CH3)3] | 170 | 31 | 220 | 2.1 | – | n.p. | LD50 at 336 h [5]: 5140 mg/kg
15 | CC(C)O[Si](OC(C)C)(OC(C)C)c1ccccc1 [drawing 12; X=OCH(CH3)2] | – | > 1000 | 800 | 2.1 | – | n.p. | MES ED50 ([1]; Table I, oral, sesame oil, 2 hours after dosing, n.p. = no protection observed): n.p.
16 | CCO[Si](C)(C)c1ccccc1 [drawing 8; R1=CH3; R2=CH3; X=OC2 H5] | 200 | 213 | 350 | > 1.3 | 33.3 | – | –
17 | C[Si](C)(O)c1ccccc1 [drawing 8; R1=CH3; R2=CH3; X=OH] | 118 | 135 | 110 | 2.7 | 33.3 | – | –
